Test results taken from ChEMBL document CHEMBL3425422, “Discovery of a potent microtubule-targeting agent: Synthesis and biological evaluation of water-soluble amino acid prodrug of combretastatin A-4 derivatives” (Bioorg Med Chem Lett, 2015).
One block for each molecule: values may come before it. Active and inactive are the calls of the source. The rule behind the calls is not given here.

Legend:
[1] = tested on: NCI-H460; experiment: Antitumor activity against human H460 cells xenografted in BALB/C mouse assessed as mouse survival at 20 mg/kg, ip qd relative to control; type: functional, organism-based; design: dose 20 mg/kg
[2] = tested on: Serum; experiment: Stability of the compound in Wistar rat serum assessed as prodrug degradation after 6 hrs; type: ADME, cell-free
[3] = Aqueous solubility of the compound; type: physicochemical; details: water (aqueous)
[4] = Antitumor activity against human H460 cells xenografted in BALB/C mouse assessed as inhibition ratio at 20 mg/kg, ip qd relative to control; type: functional; details: NCI-H460, ip, route intraperitoneal
[5] = Cytotoxicity against human SKOV3 cells assessed as cell viability after 48 hrs by MTT assay; type: functional, cell-based; details: SK-OV-3, 48 h
[6] = Cytotoxicity against human H460 cells assessed as cell viability after 48 hrs by MTT assay; type: functional, cell-based; details: NCI-H460, 48 h
[7] = tested on: Serum; experiment: Stability of the compound in Wistar rat serum assessed as prodrug degradation after 24 hrs; type: ADME, cell-free
[8] = tested on: HepG2; experiment: Cytotoxicity against human HepG2 cells assessed as cell viability after 48 hrs by MTT assay; type: functional, cell-based; details: HepG2, 48 h
[9] = tested on: SK-OV-3; experiment: Antitumor activity against human SKOV3 cells xenografted in BALB/C mouse assessed as mouse survival at 10 mg/kg, iv qd relative to control; type: functional, organism-based; design: dose 10 mg/kg
[10] = Antitumor activity against human SKOV3 cells xenografted in BALB/C mouse assessed as inhibition ratio at 10 mg/kg, iv qd relative to control; type: functional; details: SK-OV-3
[11] = tested on: SK-OV-3; experiment: Induction of cell cycle arrest in human SKOV3 cells assessed as accumulation at G1 phase at 500 nM after 24 hrs by FCM analysis (reference value: 60.84%); type: functional
[12] = tested on: SK-OV-3; experiment: Induction of MAPK phosphorylation in human SKOV3 cells at 500 nM after 24 hrs by Western blot analysis; type: functional, cell-based
[13] = tested on: SK-OV-3; experiment: Induction of cell cycle arrest in human SKOV3 cells assessed as accumulation at G2/M phase at 100 nM after 24 hrs by FCM analysis (reference value: 15.30%); type: functional
[14] = tested on: SK-OV-3; experiment: Antimitotic effect in human SKOV3 cells assessed as increase in cyclin B level by Western blot analysis; type: functional, cell-based
[15] = tested on: SK-OV-3; experiment: Induction of cell cycle arrest in human SKOV3 cells assessed as accumulation at S phase at 100 nM after 24 hrs by FCM analysis (reference value: 24.09%); type: functional
[16] = tested on: SK-OV-3; experiment: Induction of cell cycle arrest in human SKOV3 cells assessed as accumulation at G2/M phase at 500 nM after 24 hrs by FCM analysis (reference value: 15.30%); type: functional
[17] = tested on: SK-OV-3; experiment: Induction of cell cycle arrest in human SKOV3 cells assessed as accumulation at G1 phase at 50 nM after 24 hrs by FCM analysis (reference value: 60.84%); type: functional
[18] = tested on: SK-OV-3; experiment: Antimitotic effect in human SKOV3 cells assessed as decrease in cdc2 level by Western blot analysis; type: functional, cell-based
[19] = biological target: T1, Tubulin (Homo sapiens) (UniProt P68371+Q9H4B7+P0DPH7+P68366+Q13509+Q71U36+P04350+Q3ZCM7+P07437+P68363+Q9BQE3+Q6PEY2+Q13885+Q9BVA1+Q9BUF5); experiment: Displacement of colchicine from tubulin (unknown origin) after 1 hr by fluorescence based competitive tubulin-binding assay; type: protein-complex assay
[20] = tested on: SK-OV-3; experiment: Induction of cell cycle arrest in human SKOV3 cells assessed as accumulation at G1 phase at 100 nM after 24 hrs by FCM analysis (reference value: 60.84%); type: functional
[21] = biological target: T1, Tubulin (Homo sapiens); experiment: Inhibition of tubulin polymerization (unknown origin) at 5 uM by cell-free tubulin polymerization assay; type: protein-complex assay
[22] = tested on: HepG2; experiment: Disruption of microtubule organization in human HepG2 cells at 100 nM after 12 hrs by DAPI staining-based fluorescence microscopy; type: functional, cell-based
[23] = tested on: SK-OV-3; experiment: Induction of cell cycle arrest in human SKOV3 cells assessed as accumulation at S phase at 500 nM after 24 hrs by FCM analysis (reference value: 24.09%); type: functional
[24] = tested on: SK-OV-3; experiment: Induction of cell cycle arrest in human SKOV3 cells assessed as accumulation at G2 phase at 50 nM after 24 hrs by FCM analysis (reference value: 15.07%); type: functional
[25] = tested on: SK-OV-3; experiment: Induction of cell cycle arrest in human SKOV3 cells assessed as accumulation at S phase at 50 nM after 24 hrs by FCM analysis (reference value: 24.09%); type: functional
[26] = biological target: T1, Tubulin (Homo sapiens); experiment: Inhibition of tubulin polymerization in human SKOV3 cells assessed as increase in polymerized (insoluble) tubulin level at 0.1 to 1 uM after 24 hrs by Western blot analysis; type: cell-based; details: SK-OV-3
[27] = tested on: SK-OV-3; experiment: Antimitotic effect in human SKOV3 cells assessed as decrease in cdc25 level by Western blot analysis; type: functional, cell-based
[28] = tested on: Rattus norvegicus; experiment: Prodrug conversion in rat assessed as 4-(4-ethoxyphenyl)-5-(3,4,5-trimethoxyphenyl)thiazol-2-amine in plasma measured as half life at 10 mg/kg, iv; type: ADME, organism-based; design: dose 10 mg/kg, route intravenous; details: in vivo
[29] = biological target: T1, Tubulin (Homo sapiens); experiment: Inhibition of tubulin polymerization (unknown origin) at 5 to 10 uM by cell-free tubulin polymerization assay; type: protein-complex assay
[30] = tested on: SK-OV-3; experiment: Induction of cell cycle arrest in human SKOV3 cells assessed as accumulation at G2 phase at 100 nM after 24 hrs by FCM analysis (reference value: 15.07%); type: functional
[31] = tested on: SK-OV-3; experiment: Induction of apoptosis in human SKOV3 cells assessed as decrease in pro-caspase-3 protein level at 100 to 1000 nM after 48 hrs by Western blot analysis; type: functional, cell-based
[32] = tested on: SK-OV-3; experiment: Antimitotic effect in human SKOV3 cells assessed as decrease in p-cdc2 level by Western blot analysis; type: functional, cell-based
[33] = tested on: HepG2; experiment: Disruption of microtubule organization in human HepG2 cells at 500 nM after 12 hrs by DAPI staining-based fluorescence microscopy; type: functional, cell-based
[34] = tested on: SK-OV-3; experiment: Induction of cell cycle arrest in human SKOV3 cells assessed as accumulation at G2/M phase after 24 hrs by FCM analysis; type: functional, cell-based
[35] = biological target: T1, Tubulin (Homo sapiens); experiment: Inhibition of tubulin polymerization in human SKOV3 cells assessed as increase in depolymerized (soluble) tubulin level at 0.1 to 1 uM after 24 hrs by Western blot analysis; type: cell-based; details: SK-OV-3
[36] = tested on: SK-OV-3; experiment: Induction of apoptosis in human SKOV3 cells assessed as decrease in Bcl-2/Bax ratio at 100 to 1000 nM after 48 hrs by Western blot analysis; type: functional, cell-based
[37] = tested on: SK-OV-3; experiment: Induction of apoptosis in human SKOV3 cells assessed as PARP cleavage at 100 to 1000 nM after 48 hrs by Western blot analysis; type: functional, cell-based
[38] = tested on: SK-OV-3; experiment: Induction of cell cycle arrest in human SKOV3 cells assessed as accumulation at G2 phase at 500 nM after 24 hrs by FCM analysis (reference value: 15.07%); type: functional
[39] = tested on: SK-OV-3; experiment: Induction of apoptosis in human SKOV3 cells assessed as decrease in pro-caspase-9 protein level at 100 to 1000 nM after 48 hrs by Western blot analysis; type: functional, cell-based

- solubility [3]: < 100 µM
SMILES: CCOc1ccc(-c2nc(N)sc2-c2cc(OC)c(OC)c(OC)c2)cc1
- IC50 [5]: 10 nM
- IC50 [6]: 200 nM
- IC50 [8]: 210 nM

- Drug degradation [2]: 17.43%
- solubility [3]: > 10000 µM
- Drug degradation [7]: 25.92%
SMILES: CCOc1ccc(-c2nc(NC(=O)CN)sc2-c2cc(OC)c(OC)c(OC)c2)cc1.Cl
- Activity [9]: Active
- Activity [1]: Active
- inhibition in vivo at 20 mg/kg [4]: 51.1%
- IC50 [5]: 200 nM
- IC50 [6]: 210 nM
- inhibition in vivo at 10 mg/kg [10]: 17.6%
- IC50 [8]: 260 nM

- Drug degradation [2]: 70.78%
- solubility [3]: 554 µM
- Drug degradation [7]: 91.1%
SMILES: CCOc1ccc(-c2nc(NC(=O)[C@H](N)CC(C)C)sc2-c2cc(OC)c(OC)c(OC)c2)cc1.Cl
- Activity [9]: Active
- Activity [1]: Active
- inhibition in vivo at 20 mg/kg [4]: 52.6%
- IC50 [5]: 90 nM
- IC50 [6]: 190 nM
- inhibition in vivo at 10 mg/kg [10]: 33.1%
- IC50 [8]: 140 nM

- Drug degradation [2]: 93.03%
- solubility [3]: > 10000 µM
- Drug degradation [7]: 99.53%
SMILES: CCOc1ccc(-c2nc(NC(=O)[C@H](C)N)sc2-c2cc(OC)c(OC)c(OC)c2)cc1.Cl
- Activity [9]: Active
- Activity [1]: Active
- inhibition in vivo at 20 mg/kg [4]: 56.6%
- IC50 [5]: 460 nM
- IC50 [6]: 210 nM
- inhibition in vivo at 10 mg/kg [10]: 28.7%
- IC50 [8]: 430 nM

- Drug degradation [2]: 12.77%
- solubility [3]: > 10000 µM
- inhibition [19]: Dose-dependent effect
- Drug degradation [7]: 38.23%
- inhibition [21]: Active
- inhibition [26]: Active
- t1/2 [28]: 2.93 h
- inhibition [29]: Active
- inhibition [35]: Active
SMILES: CCOc1ccc(-c2nc(NC(=O)[C@@H](N)C(C)C)sc2-c2cc(OC)c(OC)c(OC)c2)cc1.Cl
- Activity [11]: 1.22%
- Activity [9]: Active
- Activity [1]: Active
- Activity [12]: Active
- Activity [13]: 41.4%
- Activity [14]: Active
- Activity [15]: 15.49%
- Activity [16]: 93.1%
- inhibition in vivo at 20 mg/kg [4]: 55%
- Activity [17]: 55.67%
- inhibition [18]: Active
- IC50 [5]: 420 nM
- IC50 [6]: 200 nM
- Activity [20]: 43.5%
- Activity [22]: Active
- Activity [23]: 3.97%
- Activity [24]: 10.22%
- inhibition in vivo at 10 mg/kg [10]: 43.1%
- Activity [25]: 34.11%
- inhibition [27]: Active
- Activity [30]: 40.71%
- Activity [31]: Active
- inhibition [32]: Active
- Activity [33]: Active
- IC50 [8]: 390 nM
- Activity [34]: Dose-dependent effect
- Activity [36]: Active
- Activity [37]: Active
- Activity [38]: 94.51%
- Activity [39]: Active

The remaining lines, values behind:

SMILES: CCOc1ccc(-c2nc(NC(=O)[C@@H](N)Cc3ccccc3)sc2-c2cc(OC)c(OC)c(OC)c2)cc1.Cl
- Activity [1]: Active
- Drug degradation [2]: 45.85%
- solubility [3]: 436 µM
- inhibition in vivo at 20 mg/kg [4]: 46.1%
- IC50 [5]: 100 nM
- IC50 [6]: > 2000 nM
- Drug degradation [7]: 70.21%
- IC50 [8]: 90 nM

SMILES: CCOc1ccc(-c2nc(NC(=O)C(C)(C)N)sc2-c2cc(OC)c(OC)c(OC)c2)cc1
- IC50 [5]: 900 nM
- IC50 [6]: > 2000 nM
- IC50 [8]: 600 nM

SMILES: CCOc1ccc(-c2nc(NC(=O)[C@@H](N)CCSC)sc2-c2cc(OC)c(OC)c(OC)c2)cc1
- IC50 [5]: 380 nM
- IC50 [6]: > 2000 nM
- IC50 [8]: 520 nM

SMILES: CCOc1ccc(-c2nc(NC(=O)C(N)COCc3ccccc3)sc2-c2cc(OC)c(OC)c(OC)c2)cc1.Cl (centres undefined)
- Activity [1]: Active
- Drug degradation [2]: 39.46%
- solubility [3]: 259 µM
- inhibition in vivo at 20 mg/kg [4]: 44.8%
- IC50 [5]: 300 nM
- IC50 [6]: > 2000 nM
- Drug degradation [7]: 42.56%
- IC50 [8]: 470 nM

SMILES: CCOc1ccc(-c2nc(NC(=O)[C@@H]3CCCN3)sc2-c2cc(OC)c(OC)c(OC)c2)cc1.Cl
- Activity [1]: Active
- Drug degradation [2]: 12.54%
- solubility [3]: 458 µM
- inhibition in vivo at 20 mg/kg [4]: 39.4%
- IC50 [5]: 80 nM
- IC50 [6]: > 2000 nM
- Drug degradation [7]: 16.55%
- IC50 [8]: 110 nM

SMILES: CCOc1ccc(-c2nc(NC(=O)[C@H]3CCCN3)sc2-c2cc(OC)c(OC)c(OC)c2)cc1
- IC50 [5]: 510 nM
- IC50 [6]: > 2000 nM
- IC50 [8]: 290 nM

SMILES: CCOc1ccc(-c2nc(NC(=O)[C@H](N)Cc3ccccc3)sc2-c2cc(OC)c(OC)c(OC)c2)cc1
- IC50 [5]: > 2000 nM
- IC50 [6]: > 2000 nM
- IC50 [8]: 600 nM
